Assay results as given in patent EP0705841A1, “Peptides havng antigenic activity against hepatitis A virus (HAV)” (SORIN BIOMEDICA S.p.A., priority 1994, dated 1996).

System: 8F4H9B monoclonal antibody
Assay: ELISA assay: reactivity of peptides adhering to the solid phase with the 8F4H9B monoclonal antibody
Type: binding, mice
Conditions: peptides in monomer form adhering to solid phase (fig.1, fig.2)
Method: The solid phase was obtained on PVC trays (Nunc), that were added with 200 µl of a peptide solution at various concentrations in a carbonate buffer 50 mM, pH 9.6. Trays were incubated overnight at 4°C when added with the monomer peptide solution, and for 2 hours at 37°C when added with the tetramer peptide solution.
Trays were saturated with 300 µl of a solution of gelatin 2%, in Tris-HCl, 0.1M, pH 7.5, for 1 hour at room temperature. Antibodies were diluted in a solution, comprising PBS, EDTA 0.03%, Triton-X100 0.2%, Tween 20 0.2% and BSA fraction V 3.2%; and incubated for 3 hours at 37°C. Trays were washed four times with an ET-System Sorin automatic washer, using PBS/Tween 20 0.1%, and the reaction detected by adding 100 µl of a chromogen and a substrate (Sorin DEIA KIT). The reaction was blocked after 30 min. by adding 200 µl of H₂SO₄ 1N, and the absorbance read at 450 nm.

Substance | reactivity with the 8F4H9B-HRP monoclonal antibody
DVMYLH [peptide 36 (Table 1)] | reacted with the antibody, even if having shown a lesser reactivity than the PM peptide
DFMWMH [peptide 17 (Table 1)] | reacted with the antibody, even if having shown a lesser reactivity than the PM peptide
